Drawing on PMC9182405, “Rapid Screening of Lipase Inhibitors in Scutellaria baicalensis by Using Porcine Pancreatic Lipase Immobilized on Magnetic Core–Shell Metal–Organic Frameworks” (Molecules, 2022), this text covers IC50 for three compounds.

Assay [1] addresses T1, porcine pancreatic lipase (PPL) (Sus scrofa, UniProt P00591).
T1 construct: gene PNLIP
Kind of assay: p-nitrophenol ester hydrolysis assay, absorbance at […] nm, free PPL; in ligand fishing some nonspecific adsorption to blank MMOF. Type of assay: biochemical.

Assay [2] deals with T1, porcine pancreatic lipase (PPL). Kind of assay: p-nitrophenol ester hydrolysis assay, absorbance at […] nm, free PPL; also ligand fishing with immobilized PPL. Type of assay: biochemical.

T1 sequence (P00591 whole entry): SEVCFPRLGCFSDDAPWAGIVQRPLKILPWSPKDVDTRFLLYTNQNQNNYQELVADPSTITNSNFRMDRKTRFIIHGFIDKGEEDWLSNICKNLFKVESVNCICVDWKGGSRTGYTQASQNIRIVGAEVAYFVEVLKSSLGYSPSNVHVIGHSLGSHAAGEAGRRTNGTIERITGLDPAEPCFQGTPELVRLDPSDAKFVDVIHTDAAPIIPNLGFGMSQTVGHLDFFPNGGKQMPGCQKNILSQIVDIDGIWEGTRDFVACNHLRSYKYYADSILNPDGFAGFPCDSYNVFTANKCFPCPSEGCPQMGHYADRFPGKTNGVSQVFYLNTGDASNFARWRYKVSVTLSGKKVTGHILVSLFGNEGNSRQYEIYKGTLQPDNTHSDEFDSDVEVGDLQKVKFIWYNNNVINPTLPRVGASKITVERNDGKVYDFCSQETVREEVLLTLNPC

Broadly, the IC50 is the point on the concentration scale where inhibition reaches its midpoint. Regarding `COc1c(O)cc(O)c2c(=O)cc(-c3ccccc3)oc12` [compound 7, Wogonin], the IC50 in assay [1] turned out to be 168 ± 8.4 µM. With `O=C(O)[C@H]1O[C@@H](Oc2cc3oc(-c4ccccc4)cc(=O)c3c(O)c2O)[C@H](O)[C@@H](O)[C@@H]1O` [compound 3, Baicalin], in assay [2], half-maximal inhibition (IC50) required 242 ± 5.6 µM. `COc1c(O)cc2oc(-c3ccccc3)cc(=O)c2c1O` [compound 8, Oroxylin A]: in assay [2], the half-maximal inhibitory concentration (IC50) came to 82.7 ± 3.6 µM.
